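Five compound concentrations were applied to cells in 96-well plates for 48 hours; endpoints were derived by simple linear interpolation of the resulting dose-response curve. The concentration for 50% growth inhibition is given as GI50. At the TGI there is no net growth.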 *1 amine or outer side, *2 acyl side, *3 side chain or, on linkers, in order; H or OH if unused. Where a SMILES comes first, the peptide text is derived from it. Bridges are numbered along the chain shown (N, C = ends). [ ]: non-standard residue; d: D form. The star is where a group is joined. Phe(3,5-F2) = N[C@@H](Cc1cc(F)cc(F)c1)C(=O)O; Pro(4R-Me) = C[C@H]1CN[C@H](C(=O)O)C1; aThr = C[C@H](O)[C@H](N)C(=O)O; Pip = O=C(O)[C@@H]1CCCCN1; X10 = Fc1cc(C2CC2)ccc1N*; CO = O=C([*:1])[*:2]
Test system: MDA-MB-468 breast
Experiment: NCI tumour cell line growth inhibition, 48 h

SMILES	GI50 [nM]	TGI [nM]
Cc1ccc2c(C)c3c(ccc4ccccc43)c[n+]2c1	408	2240
C[C@@H]1C[C@H]2C(=O)O[C@@H](C)[C@H](NC(=O)[C@H](Cc3cc(F)cc(F)c3)NC(=O)Nc3ccc(C4CC4)cc3F)C(=O)N3CCC[C@H]3C(=O)N3CCCC[C@H]3C(=O)N[C@@H](C)C(=O)N2C1 ({X10-CO}-[Phe(3,5-F2)][aThr]P[Pip]A[Pro(4R-Me)]; ester 2-C)	25.7	187
COc1cc(/C=N\NC(=O)CN2CCN(c3cc4c(cc3F)c(=O)c(C(=O)N/N=C/c3cc(OC)c(OC)c(OC)c3)cn4C3CC3)CC2)cc(OC)c1OC	221	535
Cc1nc2sccn2c1-c1csc(Nc2ccccc2Cl)n1	719	5840

From PubChem BioAssay (NCI)
